Data published in US20200390755A1, “COMPOUND FOR TREATING NERVOUS SYSTEM DISEASES AND USE THEREOF” (SHAANXI MICOT TECHNOLOGY CO., LTD., priority 2018, published 2020).

Columns and labels:
[1] = system: WT mice; test: High-altitude balance beam (5 mm) experiment 2, WT mice; assay type: in vivo, mouse; details: 5 mg/kg/d intragastric
Description: 7-week-old N171-82Q HD male mice were paired with female B6C3F1/J hybrid mice to obtain newborn mice. From 21 days of age, male mice were housed in separate cages. 0.5 cm of mouse tail tissue was removed to extract DNA to determine the genotype of the mouse, such that N171-82Q HD mice and WT mice needed for the experiment were obtained. The mice were randomly divided into WT Vehicle group (normal mice), WT test compound group (administration group of normal mice, 5 mg/kg/d, n=10), HD Vehicle group (blank group of HD mice, n=15), HD test compound group (administration groups 1-5 of HD mice, 5 mg/kg/d, n=10). The test compound was suspended in 1% CMC-Na solution and administered by intragastric administration until the end of the study. The weights of the mice were measured every week. Behavioral tests were performed at 12 weeks, 18 weeks, and 24 weeks of age to investigate motor function. At 20 weeks, 3 samples of tissue from each group were used for western blotting and immunohistochemistry. At 24 weeks, MRI scans were performed. At the end of the study, the effect of the test compound on the mortality of mice was evaluated. The software Sigmaplot 13.0 was used for statistical analysis of the data, and the data of each group was expressed as mean standard error (x±SEM). Behavioral test results were analyzed using two-way (genotype and processing factor) ANOVA and post-ho tests, the comparison and statistics of weight data were performed using two-way (genotype and age) ANOVA of repeated measures, and mortality was counted using Kaplan-Meier method. Other measurement data were analyzed by one-way ANOVA. P<0.05 was considered statistically significant. The motor function of mice was evaluated by the rotarod experiment and three types of balance beam experiments. […] If the time for crossing the beams was greater than 60 seconds, it was recorded as 60 seconds. a square balance beam with a length of 80 cm and a width of 5 mm was place at a height of about 50 cm from the ground. […]

[2] = system: WT mice; test: In vivo MRI scan and brain volume measurement, WT mice; design: species or system mouse; details: 5 mg/kg/d, administered until 24 weeks, n = 4
Description: 7-week-old N171-82Q HD male mice were paired with female B6C3F1/J hybrid mice to obtain newborn mice. From 21 days of age, male mice were housed in separate cages. 0.5 cm of mouse tail tissue was removed to extract DNA to determine the genotype of the mouse, such that N171-82Q HD mice and WT mice needed for the experiment were obtained. The mice were randomly divided into WT Vehicle group (normal mice), WT test compound group (administration group of normal mice, 5 mg/kg/d, n=10), HD Vehicle group (blank group of HD mice, n=15), HD test compound group (administration groups 1-5 of HD mice, 5 mg/kg/d, n=10). The test compound was suspended in 1% CMC-Na solution and administered by intragastric administration until the end of the study. The weights of the mice were measured every week. Behavioral tests were performed at 12 weeks, 18 weeks, and 24 weeks of age to investigate motor function. At 20 weeks, 3 samples of tissue from each group were used for western blotting and immunohistochemistry. At 24 weeks, MRI scans were performed. At the end of the study, the effect of the test compound on the mortality of mice was evaluated. The WT Vehicle group, WT test compound group, HD Vehicle group and HD test compound group were administered until 24 weeks, and 4 mice in each group were taken for in vivo MRI scanning and brain volume measurement. A 9.4 T MRI scanner equipped with three-axis gradient and animal imaging probes was used. The mice were anesthetized with 1% isoflurane. The breath of mice was monitored, and constant temperature was maintained throughout the scan. Three-dimensional T2 weighted fast spin echo sequence technology was used to obtain images. The imaging resolution and contrast of this technology were sufficient to automatically describe the volume of the mouse brain and substructures. […] These transformations encoded morphological differences between images and analyzed based on deformation morphological measurements (DBM) to detect regional changes in brain volume. The volume of the whole brain (Brain), […] was analyzed. […]

SMILES: O=c1cc(-c2ccc(N3CCCCC3)cc2)oc2c(O)c(O)ccc12 [Example 1, 7,8-dihydroxy-2-(4-(piperidin-1-yl)phenyl)-4H-chromen-4-one]
- Time for crossing the beams, high-altitude balance beam (5 mm) ([1]; 12 w): 11.64 ± 4.20 s
- Time for crossing the beams, high-altitude balance beam (5 mm) ([1]; 18 w): 9.91 ± 3.05 s
- Time for crossing the beams, high-altitude balance beam (5 mm) ([1]; 24 w): 14.18 ± 7.07 s
- MRI volume, Neurocortex [2]: 20.11 ± 0.377 mm^3
- MRI volume, Striatum [2]: 88.99 ± 0.985 mm^3
- MRI volume, Whole brain [2]: 489.08 ± 7.14 mm^3
